The text below walks through data of patent publication US20240316022A1 (TYRA BIOSCIENCES, INC., priority 2021, published 2024).

The target of one experiment is T1, FGFR1 (Homo sapiens, UniProt P11362).
T1 construct: made in house; host or cells: E. coli derived from BL21, infected with T7 phage
In words: Kinase binding assay (kinase-tagged T7 phage, qPCR), Kd. The note with it: read-out: FGFR1 (Kd nM). (Quantitative PCR measures a nucleic acid by following its amplification.)

A further experiment deals with T2, FGFR2 (Homo sapiens, UniProt P21802).
T2 construct: made in house; host or cells: E. coli derived from BL21, infected with T7 phage
T2 sequence (P21802 22-821): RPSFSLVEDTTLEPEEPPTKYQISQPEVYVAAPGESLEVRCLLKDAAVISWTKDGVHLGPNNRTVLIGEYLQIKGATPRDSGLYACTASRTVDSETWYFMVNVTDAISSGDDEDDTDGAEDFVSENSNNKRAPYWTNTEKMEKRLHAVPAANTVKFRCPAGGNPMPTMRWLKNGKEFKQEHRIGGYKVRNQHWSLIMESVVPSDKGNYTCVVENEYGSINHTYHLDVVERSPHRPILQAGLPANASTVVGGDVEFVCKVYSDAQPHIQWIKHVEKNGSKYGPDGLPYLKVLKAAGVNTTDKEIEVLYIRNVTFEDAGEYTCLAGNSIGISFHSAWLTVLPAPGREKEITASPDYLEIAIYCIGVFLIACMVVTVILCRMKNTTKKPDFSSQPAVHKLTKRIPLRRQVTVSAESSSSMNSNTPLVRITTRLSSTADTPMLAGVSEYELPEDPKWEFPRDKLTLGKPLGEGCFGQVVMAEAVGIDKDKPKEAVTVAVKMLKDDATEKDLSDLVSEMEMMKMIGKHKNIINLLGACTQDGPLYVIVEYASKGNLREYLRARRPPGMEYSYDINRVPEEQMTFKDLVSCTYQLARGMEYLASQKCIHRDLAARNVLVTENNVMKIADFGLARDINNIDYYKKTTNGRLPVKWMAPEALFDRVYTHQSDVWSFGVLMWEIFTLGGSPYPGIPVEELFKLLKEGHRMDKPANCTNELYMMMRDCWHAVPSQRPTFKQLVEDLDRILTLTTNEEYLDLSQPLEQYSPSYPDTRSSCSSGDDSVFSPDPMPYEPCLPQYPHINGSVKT
Described as above. The note with it: read-out: FGFR2 (Kd nM).

The target in a further experiment is T3, FGFR3 (Homo sapiens, UniProt P22607).
T3 construct: made in house; host or cells: E. coli derived from BL21, infected with T7 phage
T3 sequence (P22607 23-806): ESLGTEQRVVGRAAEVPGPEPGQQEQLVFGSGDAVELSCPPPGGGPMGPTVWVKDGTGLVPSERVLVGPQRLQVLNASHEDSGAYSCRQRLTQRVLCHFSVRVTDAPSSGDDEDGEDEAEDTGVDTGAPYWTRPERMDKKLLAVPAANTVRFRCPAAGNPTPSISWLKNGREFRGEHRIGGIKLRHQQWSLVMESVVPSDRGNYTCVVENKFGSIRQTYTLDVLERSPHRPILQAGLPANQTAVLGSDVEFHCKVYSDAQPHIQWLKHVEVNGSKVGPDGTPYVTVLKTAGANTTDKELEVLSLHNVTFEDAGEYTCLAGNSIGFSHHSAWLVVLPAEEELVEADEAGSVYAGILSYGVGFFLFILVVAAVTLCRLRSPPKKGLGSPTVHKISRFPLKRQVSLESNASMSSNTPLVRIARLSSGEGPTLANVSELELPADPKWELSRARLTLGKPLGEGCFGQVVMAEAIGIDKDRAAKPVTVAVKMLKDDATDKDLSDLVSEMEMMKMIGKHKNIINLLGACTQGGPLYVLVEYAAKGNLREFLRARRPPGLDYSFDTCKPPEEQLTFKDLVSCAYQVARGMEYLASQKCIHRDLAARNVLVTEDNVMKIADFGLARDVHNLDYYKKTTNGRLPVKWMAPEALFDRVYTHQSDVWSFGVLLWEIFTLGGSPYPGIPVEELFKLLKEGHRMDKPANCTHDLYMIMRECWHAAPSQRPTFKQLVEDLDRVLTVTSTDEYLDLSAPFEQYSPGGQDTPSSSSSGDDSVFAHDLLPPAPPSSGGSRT
Described as above. Conditions: read-out: FGFR3 (Kd nM).

Another experiment concerns the target T4, FGFR4 (Homo sapiens, UniProt P22455).
T4 construct: made in house; host or cells: E. coli derived from BL21, infected with T7 phage
The description is as above. The note with it: read-out: FGFR4 (Kd nM).

Another experiment deals with T5, BCR-FGFR1 Ba/F3 (Homo sapiens, UniProt P11362).
T5 construct: host or cells: Ba/F3; the other entry of the earlier key: BCR (P11274, Breakpoint cluster region protein)
T5 sequence (P11362 478-767 limits assumed): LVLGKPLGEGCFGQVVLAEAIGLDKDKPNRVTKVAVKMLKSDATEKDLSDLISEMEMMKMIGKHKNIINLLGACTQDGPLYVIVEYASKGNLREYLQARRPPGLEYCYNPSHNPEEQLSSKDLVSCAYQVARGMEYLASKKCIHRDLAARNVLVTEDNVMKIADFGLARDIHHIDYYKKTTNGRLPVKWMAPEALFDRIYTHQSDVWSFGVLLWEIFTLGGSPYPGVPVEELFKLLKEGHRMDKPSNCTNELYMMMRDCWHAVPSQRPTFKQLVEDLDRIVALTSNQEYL
In words: Ba/F3 cell viability assay (CellTiter-Glo 2.0). The format is cell-based. Conditions: Ba/F3 BCR-FGFR1 cells, 48 hours. The text has this:
(§1) Experimental Purpose: Recombinant kinase fusions are transduced into parental Ba/F3, which becomes dependent upon this constitutive kinase activity for IL3-independent survival. Inhibition of kinase activity leads to cell death, which is monitored using CellTiter-Glo® 2.0 (Promega) which measures intracellular ATP concentration that in turn serves as a marker for viability. BCR-FGFR4 Ba/F3, BCR-FGFR1 Ba/F3 and FGFR3-BAIAP2L1 Ba/F3 were obtained from Advanced Cellular Dynamics (Seattle, WA)
(§2) Cell Viability Assay Procedure: Cell Titer-Glo® 2.0 Luminescent cell viability assay reagent was purchased from Promega (Madison, WI). BCR-FGFR4 Ba/F3, BCR-FGFR1 Ba/F3 and FGFR3-BAIAP2L1 Ba/F3 cells were cultured in RPMI1640 media supplemented with 10% fetal bovine serum. Cultures were maintained at 37° C. in a humidified atmosphere of 5% CO2 and 95% air.
(§3) Cells were plated in 96-well clear bottom/white plates (Corning #3903) at 10,000 cells/well in 100 μl of media, incubated overnight. The next day, test compound DMSO stock solutions were made at 10 mM and 2 μM final concentration. Compounds were then added to cells in a 9-dose, 10-fold dilution series starting at 30 μM with an HP 300e Digital Dispenser (each dose was applied in triplicate). DMSO was backfilled to each well up to 301 nL total volume of test compound+DMSO, and a total of 301 nL DMSO was added to a control/no test compound well in triplicate. The cells in cell culture plates were incubated with the compounds at 37° C. and 5% CO2 for 48 hours. Then 50 μl of Cell Titer Glo 2.0 reagent was added to each well of the cell culture plates. The contents were covered from light and mixed on an orbital shaker at room temperature for 10 min. Luminescence was recorded by a Synergy H1 Microplate Reader (Biotek, Winooski, VT). Cells were assessed as a percentage of DMSO only treated control cells. Curves were plotted and IC50 values were calculated using the GraphPad Prism 8 program based on a sigmoidal dose-response equation (4 parameter).

For a further experiment, the target named is T6, FGFR3-BAIAP2L1 Ba/F3 (Homo sapiens, UniProt P22607).
T6 construct: host or cells: Ba/F3; the other entry of the earlier key: BAIAP2L1 (Q9UHR4, BAR/IMD domain-containing adapter protein 2-like 1)
T6 sequence (P22607 397-758 limits assumed): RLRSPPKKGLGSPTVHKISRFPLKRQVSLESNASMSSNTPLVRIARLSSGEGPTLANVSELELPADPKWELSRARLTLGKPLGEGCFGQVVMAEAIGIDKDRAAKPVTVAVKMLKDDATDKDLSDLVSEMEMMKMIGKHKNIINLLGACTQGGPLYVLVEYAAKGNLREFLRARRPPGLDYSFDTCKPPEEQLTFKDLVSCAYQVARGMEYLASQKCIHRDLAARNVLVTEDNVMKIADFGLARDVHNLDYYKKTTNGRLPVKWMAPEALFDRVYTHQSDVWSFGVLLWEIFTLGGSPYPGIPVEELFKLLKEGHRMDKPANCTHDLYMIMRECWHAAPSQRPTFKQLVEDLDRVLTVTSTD
In words: Ba/F3 cell viability assay (CellTiter-Glo 2.0). It is filed as cell-based. Conditions: Ba/F3 FGFR3-BAIAP2L1 cells, 48 hours.
Excerpt: as §1, §2, §3
For orientation: In ATP-based viability assays light output follows the ATP content of the culture.

T1 sequence (P11362 22-822): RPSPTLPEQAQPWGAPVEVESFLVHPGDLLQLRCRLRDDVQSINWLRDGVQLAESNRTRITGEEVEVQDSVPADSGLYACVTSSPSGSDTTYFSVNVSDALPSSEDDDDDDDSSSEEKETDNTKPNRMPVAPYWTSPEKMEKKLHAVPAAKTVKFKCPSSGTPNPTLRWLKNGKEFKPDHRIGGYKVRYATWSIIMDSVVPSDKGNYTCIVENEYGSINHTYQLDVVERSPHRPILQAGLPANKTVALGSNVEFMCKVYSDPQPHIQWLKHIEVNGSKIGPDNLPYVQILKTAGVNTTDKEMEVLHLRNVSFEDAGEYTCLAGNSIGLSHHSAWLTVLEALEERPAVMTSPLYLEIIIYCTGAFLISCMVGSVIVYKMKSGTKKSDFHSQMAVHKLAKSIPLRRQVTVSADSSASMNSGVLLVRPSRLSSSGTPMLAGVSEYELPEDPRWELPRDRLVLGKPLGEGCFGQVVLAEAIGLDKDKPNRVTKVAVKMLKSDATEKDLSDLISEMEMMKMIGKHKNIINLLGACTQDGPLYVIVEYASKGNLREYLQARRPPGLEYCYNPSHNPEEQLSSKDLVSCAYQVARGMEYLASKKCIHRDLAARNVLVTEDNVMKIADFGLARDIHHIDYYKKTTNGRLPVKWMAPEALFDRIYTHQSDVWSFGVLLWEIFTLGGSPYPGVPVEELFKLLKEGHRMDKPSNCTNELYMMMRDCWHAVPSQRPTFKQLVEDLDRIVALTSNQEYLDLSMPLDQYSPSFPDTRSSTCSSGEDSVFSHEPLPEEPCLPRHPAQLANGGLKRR
T4 sequence (P22455 22-802): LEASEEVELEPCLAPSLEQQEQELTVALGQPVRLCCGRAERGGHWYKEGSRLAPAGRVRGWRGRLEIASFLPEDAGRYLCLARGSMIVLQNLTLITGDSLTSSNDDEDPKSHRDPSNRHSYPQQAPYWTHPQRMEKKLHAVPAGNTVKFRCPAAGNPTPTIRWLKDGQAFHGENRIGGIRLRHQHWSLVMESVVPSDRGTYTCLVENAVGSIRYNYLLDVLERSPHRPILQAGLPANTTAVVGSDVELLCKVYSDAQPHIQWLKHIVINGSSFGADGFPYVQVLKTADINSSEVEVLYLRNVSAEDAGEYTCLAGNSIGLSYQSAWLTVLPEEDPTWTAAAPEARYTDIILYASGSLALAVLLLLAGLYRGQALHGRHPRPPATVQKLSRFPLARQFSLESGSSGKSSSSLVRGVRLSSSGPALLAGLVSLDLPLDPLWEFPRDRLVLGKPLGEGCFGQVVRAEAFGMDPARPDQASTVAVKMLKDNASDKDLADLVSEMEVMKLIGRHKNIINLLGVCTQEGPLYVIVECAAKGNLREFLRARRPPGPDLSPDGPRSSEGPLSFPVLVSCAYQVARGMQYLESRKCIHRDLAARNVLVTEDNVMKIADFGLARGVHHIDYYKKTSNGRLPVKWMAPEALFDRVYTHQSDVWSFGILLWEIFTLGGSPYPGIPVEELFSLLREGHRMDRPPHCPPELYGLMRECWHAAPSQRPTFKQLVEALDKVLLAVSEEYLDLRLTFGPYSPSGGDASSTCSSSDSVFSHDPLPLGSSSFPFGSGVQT

Turning to `CCN1CCC(Oc2ncc(-c3n[nH]c4ccc(O[C@H](C)c5c(Cl)cncc5Cl)cc34)cc2C#N)CC1` [Example 119], the Kd at FGFR1, at FGFR2, at FGFR3 and at FGFR4 was 0.1 to 100 nM in each case. Further, the IC50 (commonly the concentration at which inhibition is half-maximal) at BCR-FGFR1 Ba/F3 fell in the range of 250 to 1000 nM; at FGFR3-BAIAP2L1 Ba/F3, 0.1 to 100 nM.

`C[C@@H](Oc1ccc2[nH]nc(-c3cnc4c(c3)N(S(C)(=O)=O)CCO4)c2c1)c1c(Cl)cncc1Cl` [Example 137, 7-[5-[(1R)-1-(3,5-dichloro-4-pyridyl)ethoxy]-1H-indazol-3-yl]-1-methylsulfonyl-2,3-dihydropyrido[2,3-b][1,4]oxazine]: the Kd (commonly the concentration at which binding is half-saturated) on FGFR1 was 250 to 1000 nM; at FGFR2, 100 to 250 nM; at FGFR3, 0.1 to 100 nM; at FGFR4, 0.1 to 100 nM. In addition, the IC50 at BCR-FGFR1 Ba/F3 is 250 to 1000 nM; on FGFR3-BAIAP2L1 Ba/F3 it was 0.1 to 100 nM.

For the molecule `Cc1ncc(Cl)c([C@@H](C)Oc2ccc3[nH]nc(-c4ccc(O[C@@H]5CCOC5)nc4)c3c2)c1Cl` [Example 147, 5-((R)-1-(3,5-Dichloro-2-methylpyridin-4-yl)ethoxy)-3-(6-(((R)-tetrahydrofuran-3-yl)oxy)pyridin-3-yl)-1H-indazole], the Kd on FGFR1, on FGFR2, on FGFR3 and on FGFR4 was 0.1 to 100 nM each time. For the same molecule, the IC50 was greater than 1000 nM on BCR-FGFR1 Ba/F3 and 100 to 250 nM at FGFR3-BAIAP2L1 Ba/F3.

As to `Cc1cc(-c2n[nH]c3ccc(O[C@H](C)c4c(Cl)cnc(C)c4Cl)cc23)cnc1O[C@@H]1CCOC1` [Example 148, 5-((R)-1-(3,5-Dichloro-2-methylpyridin-4-yl)ethoxy)-3-(5-methyl-6-(((R)-tetrahydrofuran-3-yl)oxy)pyridin-3-yl)-1H-indazole], the dissociation constant Kd on FGFR1 was 250 to 1000 nM; at FGFR2 it was 250 to 1000 nM; at FGFR3 it was 0.1 to 100 nM; on FGFR4, 0.1 to 100 nM. The IC50 on BCR-FGFR1 Ba/F3 is 250 to 1000 nM; at FGFR3-BAIAP2L1 Ba/F3, 100 to 250 nM.

`Cc1ncc(Cl)c([C@@H](C)Oc2ccc3[nH]nc(-c4ccc(O[C@H]5CCOC5)nc4)c3c2)c1Cl` [Example 150, 5-[(1R)-1-(3,5-dichloro-2-methyl-4-pyridyl)ethoxy]-3-[6-[(3S)-tetrahydrofuran-3-yl]oxy-3-pyridyl]-1H-indazole]: the Kd at FGFR1, on FGFR2, on FGFR3 and at FGFR4 was 0.1 to 100 nM throughout. Further, the IC50 on BCR-FGFR1 Ba/F3 was in the range of 250 to 1000 nM; on FGFR3-BAIAP2L1 Ba/F3, 0.1 to 100 nM.

With `Cc1cc(-c2n[nH]c3ccc(O[C@H](C)c4c(Cl)cncc4Cl)cc23)cnc1NC1CCOCC1` [Example 151, (R)-5-(5-(1-(3,5-Dichloropyridin-4-yl)ethoxy)-1H-indazol-3-yl)-3-methyl-N-(tetrahydro-2H-pyran-4-yl)pyridin-2-amine], the Kd fell in the range of 100 to 250 nM on FGFR1, 100 to 250 nM on FGFR2, 0.1 to 100 nM on FGFR3 and 0.1 to 100 nM on FGFR4. Moreover, the IC50 at BCR-FGFR1 Ba/F3 lay within 250 to 1000 nM; at FGFR3-BAIAP2L1 Ba/F3, 0.1 to 100 nM.

For the molecule `C[C@@H](Oc1ccc2[nH]nc(-c3ccc(OC4CC5(C4)CN(S(C)(=O)=O)C5)nc3)c2c1)c1c(Cl)cncc1Cl` [Example 152, (R)-5-(1-(3,5-dichloropyridin-4-yl)ethoxy)-3-(6-((2-(methylsulfonyl)-2-azaspiro[3.3]heptan-6-yl)oxy)pyridin-3-yl)-1H-indazole], the Kd at FGFR1, at FGFR2, at FGFR3 and at FGFR4 was 0.1 to 100 nM in each case. For the same molecule, the IC50 lay within 100 to 250 nM at BCR-FGFR1 Ba/F3 and 0.1 to 100 nM at FGFR3-BAIAP2L1 Ba/F3.

Regarding `Cc1cc(-c2n[nH]c3ccc(O[C@H](C)c4c(Cl)cncc4Cl)cc23)cnc1N[C@H]1CCOC1` [Example 153, 5-(5-((R)-1-(3,5-dichloropyridin-4-yl)ethoxy)-1H-indazol-3-yl)-3-methyl-N-((S)-tetrahydrofuran-3-yl)pyridin-2-amine], the Kd at FGFR1, at FGFR2, at FGFR3 and on FGFR4 was 0.1 to 100 nM in each case. Further, the values for the IC50 on BCR-FGFR1 Ba/F3 and on FGFR3-BAIAP2L1 Ba/F3 were 250 to 1000 nM and 0.1 to 100 nM, respectively.

In the case of `Cc1ncc(Cl)c([C@@H](C)Oc2ccc3[nH]nc(-c4ccc(N[C@@H]5CCOC5)nc4)c3c2)c1Cl` [Example 155, 5-(5-((R)-1-(3,5-Dichloro-2-methylpyridin-4-yl)ethoxy)-1H-indazol-3-yl)-N-((R)-tetrahydrofuran-3-yl)pyridin-2-amine], the Kd at FGFR1, at FGFR2, at FGFR3 and on FGFR4 was 0.1 to 100 nM each time. For the same molecule, the IC50 at BCR-FGFR1 Ba/F3 is 100 to 250 nM; on FGFR3-BAIAP2L1 Ba/F3, 0.1 to 100 nM.

Consider `Cc1ncc(Cl)c([C@@H](C)Oc2ccc3[nH]nc(-c4ccc(NC5CCOCC5)nc4)c3c2)c1Cl` [Example 156], for which the Kd on FGFR1, on FGFR2, on FGFR3 and at FGFR4 was 0.1 to 100 nM each time. Further, the IC50 at BCR-FGFR1 Ba/F3 is 100 to 250 nM; on FGFR3-BAIAP2L1 Ba/F3, 0.1 to 100 nM.

With `C[C@@H](Oc1ccc2[nH]nc(-c3ccc4c(c3)COC3(CCN(C5CCC5)CC3)O4)c2c1)c1c(Cl)cncc1Cl` [Example 157, (R)-1′-Cyclobutyl-6-(5-(1-(3,5-dichloropyridin-4-yl)ethoxy)-1H-indazol-3-yl)-4H-spiro[benzo[d][1,3]dioxine-2,4′-piperidine]], the Kd at FGFR1, on FGFR2, at FGFR3 and at FGFR4 was 0.1 to 100 nM in each case. The IC50 lay within 250 to 1000 nM on BCR-FGFR1 Ba/F3 and 0.1 to 100 nM on FGFR3-BAIAP2L1 Ba/F3.

As to `Cc1cc(-c2n[nH]c3ccc(O[C@H](C)c4c(Cl)cncc4Cl)cc23)cnc1N[C@@H]1CCOC1` [Example 158, 5-(5-((R)-1-(3,5-dichloropyridin-4-yl)ethoxy)-1H-indazol-3-yl)-3-methyl-N-((R)-tetrahydrofuran-3-yl)pyridin-2-amine], the Kd on FGFR1 fell in the range of 0.1 to 100 nM; at FGFR2, 100 to 250 nM; on FGFR3, 0.1 to 100 nM; on FGFR4, 0.1 to 100 nM. Moreover, the IC50 on BCR-FGFR1 Ba/F3 lay within 250 to 1000 nM; at FGFR3-BAIAP2L1 Ba/F3 it was 0.1 to 100 nM.

For the molecule `C[C@@H](Oc1ccc2[nH]nc(-c3ccc(NC4CC5(C4)CN(S(C)(=O)=O)C5)nc3)c2c1)c1c(Cl)cncc1Cl` [Example 159, (R)-N-(5-(5-(1-(3,5-dichloropyridin-4-yl)ethoxy)-1H-indazol-3-yl)pyridin-2-yl)-2-(methylsulfonyl)-2-azaspiro[3.3]heptan-6-amine], the Kd on FGFR1, at FGFR2, on FGFR3 and at FGFR4 was 0.1 to 100 nM throughout. The IC50 on BCR-FGFR1 Ba/F3 and on FGFR3-BAIAP2L1 Ba/F3 was 0.1 to 100 nM each time.

For the molecule `Cc1ncc(Cl)c([C@@H](C)Oc2ccc3[nH]nc(-c4ccc(N[C@H]5CCOC5)nc4)c3c2)c1Cl` [Example 160, 5-[5-[(1R)-1-(3,5-dichloro-2-methyl-4-pyridyl)ethoxy]-1H-indazol-3-yl]-N-[(3S)-tetrahydrofuran-3-yl]pyridin-2-amine], the equilibrium dissociation constant (Kd) on FGFR1, on FGFR2, at FGFR3 and at FGFR4 was 0.1 to 100 nM each time. Also, the IC50 at BCR-FGFR1 Ba/F3 is 100 to 250 nM; at FGFR3-BAIAP2L1 Ba/F3, 0.1 to 100 nM.

With `C[C@@H](Oc1ccc2[nH]nc(-c3ccc(OC4C5CN(S(C)(=O)=O)CC54)nc3)c2c1)c1c(Cl)cncc1Cl` (stereo partly drawn) [Example 162, 5-((R)-1-(3,5-dichloropyridin-4-yl)ethoxy)-3-(6-((3-(methylsulfonyl)-3-azabicyclo[3.1.0]hexan-6-yl)oxy)pyridin-3-yl)-1H-indazole], the Kd at FGFR1, at FGFR2, at FGFR3 and at FGFR4 was 0.1 to 100 nM throughout. The IC50 at BCR-FGFR1 Ba/F3 fell in the range of 100 to 250 nM; on FGFR3-BAIAP2L1 Ba/F3, 0.1 to 100 nM.
